Measured values reported in paper PMC10924921, “Mi-2β promotes immune evasion in melanoma by activating EZH2 methylation” (Nature Communications, 2024).

Key:
Assay in all cases: biochemical
Design in all cases: KINOMEscan active-site competition binding panel (468 kinase assays), per cent of control at 1000 nM
Settings in all cases: KINOMEscan per cent of control (binding competition); read-out: Percent Control
[1] = biological target: T1, ABL1(F317I)-nonphosphorylated (Homo sapiens, UniProt P00519, F317I)
T1 construct: nonphosphorylated
Description: (§1) Figure S7 / Percent Control

[2] = biological target: T2, ABL1(H396P)-phosphorylated (Homo sapiens, UniProt P00519, H396P)
T2 construct: phosphorylated
Description: as §1

[3] = biological target: T3, ABL1(T315I)-nonphosphorylated (Homo sapiens, UniProt P00519, T315I)
T3 construct: nonphosphorylated
Description: as §1

ACVR1B = ACVR1B (Homo sapiens, UniProt P36896)
Description: as §1

CAMK1D = CAMK1D (Homo sapiens, UniProt Q8IU85)
Description: as §1

CAMK2D = CAMK2D (Homo sapiens, UniProt Q13557)
Description: as §1

CDK4-cyclinD1 = biological target: T4, CDK4-cyclinD1 (Homo sapiens, UniProt P11802)
T4 construct: cyclinD1
Description: as §1

EGFR(G719C) = EGFR(G719C) (Homo sapiens, UniProt P00533, G719C)
Description: as §1

EPHB4 = EPHB4 (Homo sapiens, UniProt P54760)
Description: as §1

FLT1 = FLT1 (Homo sapiens, UniProt P17948)
Description: as §1

FLT3-autoinhibited = FLT3-autoinhibited (Homo sapiens, UniProt P36888)
Description: as §1

INSRR = INSRR (Homo sapiens, UniProt P14616)
Description: as §1

LTK = LTK (Homo sapiens, UniProt P29376)
Description: as §1

MAP4K5 = MAP4K5 (Homo sapiens, UniProt Q9Y4K4)
Description: as §1

MLK2 = biological target: T5, MLK2 (Homo sapiens, UniProt Q02779)
T5 construct: gene MAP3K10
Description: as §1

PAK7 = biological target: T6, PAK7 (Homo sapiens, UniProt Q9P286)
T6 construct: gene PAK5
Description: as §1

PDGFRB = PDGFRB (Homo sapiens, UniProt P09619)
Description: as §1

PKN2 = PKN2 (Homo sapiens, UniProt Q16513)
Description: as §1

PRKG1 = PRKG1 (Homo sapiens, UniProt Q13976)
Description: as §1

RIPK2 = RIPK2 (Homo sapiens, UniProt O43353)
Description: as §1

SNARK = biological target: T7, SNARK (Homo sapiens, UniProt Q9H093)
T7 construct: gene NUAK2
Description: as §1

TRKB = biological target: T8, TRKB (Homo sapiens, UniProt Q16620)
T8 construct: gene NTRK2
Description: as §1

ZAK = biological target: T9, ZAK (Homo sapiens, UniProt Q9NYL2)
T9 construct: gene MAP3K20
Description: as §1

p38-delta = biological target: T10, p38-delta (Homo sapiens, UniProt O15264)
T10 construct: gene MAPK13
Description: as §1

T10 sequence (O15264 whole entry): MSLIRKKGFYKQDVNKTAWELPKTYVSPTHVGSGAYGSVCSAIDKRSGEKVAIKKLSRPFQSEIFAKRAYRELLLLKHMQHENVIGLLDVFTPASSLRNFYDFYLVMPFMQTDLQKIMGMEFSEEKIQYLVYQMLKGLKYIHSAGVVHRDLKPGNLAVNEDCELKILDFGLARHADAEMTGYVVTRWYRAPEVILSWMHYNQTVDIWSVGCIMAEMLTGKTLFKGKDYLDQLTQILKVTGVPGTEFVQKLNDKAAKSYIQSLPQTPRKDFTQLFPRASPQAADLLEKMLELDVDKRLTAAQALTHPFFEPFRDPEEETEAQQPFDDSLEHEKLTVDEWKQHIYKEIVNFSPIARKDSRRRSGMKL
Chain of LTK (P29376 whole entry): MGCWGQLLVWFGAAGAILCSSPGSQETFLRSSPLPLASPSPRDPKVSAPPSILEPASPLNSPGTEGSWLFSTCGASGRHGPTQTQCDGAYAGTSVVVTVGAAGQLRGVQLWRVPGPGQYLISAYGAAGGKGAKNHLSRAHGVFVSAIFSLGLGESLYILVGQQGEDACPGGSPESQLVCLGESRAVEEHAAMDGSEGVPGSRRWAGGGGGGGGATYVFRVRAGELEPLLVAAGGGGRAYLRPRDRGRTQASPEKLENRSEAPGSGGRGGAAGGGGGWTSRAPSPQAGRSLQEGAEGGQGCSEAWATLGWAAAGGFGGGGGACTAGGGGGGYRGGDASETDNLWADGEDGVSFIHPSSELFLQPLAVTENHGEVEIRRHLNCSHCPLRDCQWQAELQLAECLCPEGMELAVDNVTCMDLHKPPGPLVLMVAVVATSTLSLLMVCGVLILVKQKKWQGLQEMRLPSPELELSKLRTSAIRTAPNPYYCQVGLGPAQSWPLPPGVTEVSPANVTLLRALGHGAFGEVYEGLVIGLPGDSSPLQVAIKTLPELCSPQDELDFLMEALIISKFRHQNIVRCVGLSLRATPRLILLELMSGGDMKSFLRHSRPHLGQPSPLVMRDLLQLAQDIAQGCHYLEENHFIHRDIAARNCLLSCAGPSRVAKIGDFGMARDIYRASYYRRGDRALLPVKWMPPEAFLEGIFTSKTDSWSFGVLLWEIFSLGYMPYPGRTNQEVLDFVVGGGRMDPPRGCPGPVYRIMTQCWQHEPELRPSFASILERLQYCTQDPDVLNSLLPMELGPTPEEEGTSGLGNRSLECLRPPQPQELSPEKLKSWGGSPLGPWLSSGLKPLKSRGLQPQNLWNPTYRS
Chain of FLT1 (P17948 whole entry): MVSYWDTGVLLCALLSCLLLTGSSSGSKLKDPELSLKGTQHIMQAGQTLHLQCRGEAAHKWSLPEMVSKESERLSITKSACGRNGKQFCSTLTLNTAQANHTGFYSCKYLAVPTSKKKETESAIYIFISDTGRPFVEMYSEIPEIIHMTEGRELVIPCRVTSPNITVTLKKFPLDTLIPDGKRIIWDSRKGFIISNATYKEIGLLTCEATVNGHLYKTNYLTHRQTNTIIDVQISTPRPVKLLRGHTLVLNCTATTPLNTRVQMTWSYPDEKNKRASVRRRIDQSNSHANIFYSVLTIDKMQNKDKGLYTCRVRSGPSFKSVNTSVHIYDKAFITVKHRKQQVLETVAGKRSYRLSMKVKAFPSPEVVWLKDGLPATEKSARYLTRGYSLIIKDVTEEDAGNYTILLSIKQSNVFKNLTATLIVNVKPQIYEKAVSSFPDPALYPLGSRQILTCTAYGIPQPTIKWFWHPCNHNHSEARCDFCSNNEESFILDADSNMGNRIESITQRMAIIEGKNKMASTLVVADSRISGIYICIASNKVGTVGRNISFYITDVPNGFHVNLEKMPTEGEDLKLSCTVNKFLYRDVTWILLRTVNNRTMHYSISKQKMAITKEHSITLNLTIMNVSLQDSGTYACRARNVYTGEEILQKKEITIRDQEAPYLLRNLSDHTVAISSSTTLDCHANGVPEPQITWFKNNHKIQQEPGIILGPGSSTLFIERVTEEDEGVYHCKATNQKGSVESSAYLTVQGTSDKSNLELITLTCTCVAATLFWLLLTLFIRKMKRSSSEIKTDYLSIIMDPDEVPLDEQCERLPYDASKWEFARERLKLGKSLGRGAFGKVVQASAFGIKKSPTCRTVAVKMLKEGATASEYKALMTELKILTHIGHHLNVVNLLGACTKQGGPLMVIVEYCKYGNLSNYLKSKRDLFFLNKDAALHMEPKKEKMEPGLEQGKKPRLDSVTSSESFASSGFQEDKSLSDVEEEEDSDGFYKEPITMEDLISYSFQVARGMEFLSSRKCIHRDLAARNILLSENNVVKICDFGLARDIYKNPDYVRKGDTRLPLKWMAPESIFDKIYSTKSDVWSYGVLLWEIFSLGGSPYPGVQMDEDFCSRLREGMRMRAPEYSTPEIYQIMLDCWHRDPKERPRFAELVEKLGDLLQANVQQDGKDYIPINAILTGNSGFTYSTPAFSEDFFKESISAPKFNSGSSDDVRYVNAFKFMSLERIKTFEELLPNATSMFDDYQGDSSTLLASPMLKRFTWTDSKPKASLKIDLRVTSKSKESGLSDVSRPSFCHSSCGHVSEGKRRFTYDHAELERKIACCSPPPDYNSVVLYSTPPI
Chain of PRKG1 (Q13976 whole entry): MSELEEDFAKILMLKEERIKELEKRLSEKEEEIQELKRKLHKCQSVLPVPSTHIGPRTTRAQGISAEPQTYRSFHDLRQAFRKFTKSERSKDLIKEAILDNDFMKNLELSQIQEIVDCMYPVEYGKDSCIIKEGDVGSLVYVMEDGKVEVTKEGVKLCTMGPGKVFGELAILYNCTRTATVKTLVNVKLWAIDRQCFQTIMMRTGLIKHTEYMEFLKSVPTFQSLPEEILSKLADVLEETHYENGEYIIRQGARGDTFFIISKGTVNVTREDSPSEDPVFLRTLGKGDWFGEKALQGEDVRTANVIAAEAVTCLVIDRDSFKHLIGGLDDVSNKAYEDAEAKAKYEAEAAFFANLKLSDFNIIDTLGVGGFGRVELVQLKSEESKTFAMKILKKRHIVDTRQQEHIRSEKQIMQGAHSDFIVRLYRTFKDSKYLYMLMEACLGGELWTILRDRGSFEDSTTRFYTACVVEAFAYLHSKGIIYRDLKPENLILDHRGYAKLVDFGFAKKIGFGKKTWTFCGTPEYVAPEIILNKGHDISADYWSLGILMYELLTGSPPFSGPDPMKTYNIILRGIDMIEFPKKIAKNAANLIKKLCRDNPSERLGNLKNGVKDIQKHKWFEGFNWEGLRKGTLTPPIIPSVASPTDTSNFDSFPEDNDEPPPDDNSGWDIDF
Chain of EPHB4 (P54760 whole entry): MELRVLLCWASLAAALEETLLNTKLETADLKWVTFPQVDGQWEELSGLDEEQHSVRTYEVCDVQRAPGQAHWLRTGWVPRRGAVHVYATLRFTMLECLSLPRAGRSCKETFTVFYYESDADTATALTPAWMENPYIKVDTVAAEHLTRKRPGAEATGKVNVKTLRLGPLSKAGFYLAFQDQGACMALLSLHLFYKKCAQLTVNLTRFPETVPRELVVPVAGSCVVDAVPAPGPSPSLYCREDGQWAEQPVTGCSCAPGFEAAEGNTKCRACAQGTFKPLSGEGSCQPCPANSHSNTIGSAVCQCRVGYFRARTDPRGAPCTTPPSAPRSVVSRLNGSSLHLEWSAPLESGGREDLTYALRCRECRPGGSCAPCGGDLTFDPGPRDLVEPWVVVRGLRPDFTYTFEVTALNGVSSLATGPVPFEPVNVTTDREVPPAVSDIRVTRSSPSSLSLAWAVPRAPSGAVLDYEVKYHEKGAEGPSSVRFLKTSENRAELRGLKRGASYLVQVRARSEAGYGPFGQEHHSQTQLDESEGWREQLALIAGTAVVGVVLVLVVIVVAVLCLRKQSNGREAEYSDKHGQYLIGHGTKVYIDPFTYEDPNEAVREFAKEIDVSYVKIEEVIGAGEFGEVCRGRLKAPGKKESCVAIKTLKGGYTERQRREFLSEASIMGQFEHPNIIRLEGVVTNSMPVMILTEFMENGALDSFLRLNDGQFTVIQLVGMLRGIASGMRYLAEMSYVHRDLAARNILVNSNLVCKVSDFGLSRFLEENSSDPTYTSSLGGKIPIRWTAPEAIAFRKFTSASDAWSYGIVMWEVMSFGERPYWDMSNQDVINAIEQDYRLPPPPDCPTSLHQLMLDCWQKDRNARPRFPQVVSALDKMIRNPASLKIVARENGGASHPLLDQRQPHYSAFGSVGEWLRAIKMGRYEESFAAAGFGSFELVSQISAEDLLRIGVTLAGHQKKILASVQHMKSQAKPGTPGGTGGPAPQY
Chain of MAP4K5 (Q9Y4K4 whole entry): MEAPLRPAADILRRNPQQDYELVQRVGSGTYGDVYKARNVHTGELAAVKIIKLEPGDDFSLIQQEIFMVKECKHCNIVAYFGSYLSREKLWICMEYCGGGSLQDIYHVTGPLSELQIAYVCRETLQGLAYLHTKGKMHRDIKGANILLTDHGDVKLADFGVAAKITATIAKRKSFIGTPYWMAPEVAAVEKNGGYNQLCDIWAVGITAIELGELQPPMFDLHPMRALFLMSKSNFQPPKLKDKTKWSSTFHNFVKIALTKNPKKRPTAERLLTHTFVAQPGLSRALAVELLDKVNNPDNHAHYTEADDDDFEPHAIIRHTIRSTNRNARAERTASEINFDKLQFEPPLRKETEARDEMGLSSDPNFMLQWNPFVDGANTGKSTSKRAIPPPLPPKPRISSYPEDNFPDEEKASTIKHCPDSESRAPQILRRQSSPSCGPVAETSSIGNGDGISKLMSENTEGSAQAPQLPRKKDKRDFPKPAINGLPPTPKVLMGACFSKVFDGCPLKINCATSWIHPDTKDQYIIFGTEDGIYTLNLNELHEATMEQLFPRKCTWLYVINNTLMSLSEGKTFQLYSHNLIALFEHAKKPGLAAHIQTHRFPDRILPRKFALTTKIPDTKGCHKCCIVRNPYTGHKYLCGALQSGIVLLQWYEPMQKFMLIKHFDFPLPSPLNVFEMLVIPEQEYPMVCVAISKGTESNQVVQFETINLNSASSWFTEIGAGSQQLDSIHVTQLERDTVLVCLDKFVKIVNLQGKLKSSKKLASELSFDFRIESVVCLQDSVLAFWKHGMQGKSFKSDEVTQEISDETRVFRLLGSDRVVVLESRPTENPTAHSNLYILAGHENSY

Question: How did the remaining binding at 1 µM [1] turn out when `Cn1c(=O)[nH]c2ccc(-c3cccc(C(=O)NC4CCn5ccnc5C4)c3)cc21` (stereo not drawn) [Z36-MP5] was run?
Answer: 85%

Question: What about the remaining binding at 1 µM [2] of the same molecule?
Answer: 82%

Question: What about the remaining binding at 1 µM [3] of the same molecule?
Answer: 56%

Question: What about the remaining binding at 1 µM (ACVR1B) of the same molecule?
Answer: 94%

Question: What about the remaining binding at 1 µM (CAMK1D) of the same molecule?
Answer: 61%

Question: And the remaining binding at 1 µM (CAMK2D)?
Answer: 89%

Question: And the remaining binding at 1 µM (CDK4-cyclinD1)?
Answer: 67%

Question: And the remaining binding at 1 µM (EGFR(G719C))?
Answer: 79%

Question: And the remaining binding at 1 µM (EPHB4)?
Answer: 84%

Question: And the remaining binding at 1 µM (FLT1)?
Answer: 95%

Question: And the remaining binding at 1 µM (FLT3-autoinhibited)?
Answer: 51%

Question: And the remaining binding at 1 µM (INSRR)?
Answer: 86%

Question: What about the remaining binding at 1 µM (LTK) of the same molecule?
Answer: 82%

Question: What about the remaining binding at 1 µM (MAP4K5) of the same molecule?
Answer: 39%

Question: What about the remaining binding at 1 µM (MLK2) of the same molecule?
Answer: 95%

Question: And the remaining binding at 1 µM (PAK7)?
Answer: 92%

Question: And the remaining binding at 1 µM (PDGFRB)?
Answer: 93%

Question: And the remaining binding at 1 µM (PKN2)?
Answer: 98%

Question: And the remaining binding at 1 µM (PRKG1)?
Answer: 64%

Question: And the remaining binding at 1 µM (RIPK2)?
Answer: 94%

Question: And the remaining binding at 1 µM (SNARK)?
Answer: 64%

Question: What about the remaining binding at 1 µM (TRKB) of the same molecule?
Answer: 52%

Question: And the remaining binding at 1 µM (ZAK)?
Answer: 95%

Question: And the remaining binding at 1 µM (p38-delta)?
Answer: 98%
